This note sets out measurements from patent US5622962A, “5α-reductase inhibitors” (priority 1995, dated 1997).

Usually inhibition stands for how much of the control response was suppressed.

Where two headings read alike, the source gives them in different places.

Assay [1] addresses T1, Type II 5α-Reductase from Human Prostate (Homo sapiens, UniProt P31213).
T1 construct: The same procedure as above was used for preparations using tissue from prostate surgery; from tissue; host or cells: human prostate tissue from surgery, homogenate, 100,000×g pellet
T1 sequence (P31213 1-254): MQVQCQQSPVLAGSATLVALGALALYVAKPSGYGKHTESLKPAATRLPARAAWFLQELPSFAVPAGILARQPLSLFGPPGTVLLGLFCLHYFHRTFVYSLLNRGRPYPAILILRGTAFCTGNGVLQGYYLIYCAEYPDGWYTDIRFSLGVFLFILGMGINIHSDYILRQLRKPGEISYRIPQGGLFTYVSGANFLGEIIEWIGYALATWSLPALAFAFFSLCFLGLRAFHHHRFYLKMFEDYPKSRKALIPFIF
The assay is described as follows: Human Type II 5α-reductase assay (conversion of [3H]-testosterone to 5α-reduced metabolites). The format is biochemical.

Assay [2] concerns the target T2, Type I 5α-Reductase from Human Scalp (Homo sapiens, UniProt P18405).
T2 construct: Scalp punch biopsies from graft recipient sites were obtained from human hair transplant procedures; from tissue; host or cells: human scalp punch biopsies (hair transplant graft recipient sites), homogenate, 100,000×g pellet
T2 sequence (P18405 1-259): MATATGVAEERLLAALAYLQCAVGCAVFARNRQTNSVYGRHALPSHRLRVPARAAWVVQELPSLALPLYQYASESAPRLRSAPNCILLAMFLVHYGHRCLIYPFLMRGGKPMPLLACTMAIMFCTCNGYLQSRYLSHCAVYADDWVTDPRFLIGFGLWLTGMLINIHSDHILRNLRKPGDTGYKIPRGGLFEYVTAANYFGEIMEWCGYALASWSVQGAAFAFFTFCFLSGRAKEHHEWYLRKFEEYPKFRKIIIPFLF
Put plainly: Human Type I 5α-reductase assay (conversion of [3H]-testosterone to 5α-reduced metabolites). The format is biochemical.

The mark [3] stands for this setting: pH 5.5, 0.3 μM, sodium acetate pH 5.5, 25°, 30 min, compared to control reaction mixtures, read-out: percent inhibition of Type II AR.
Where [4] appears, read: pH 7.5, 0.3 μM, 50 nM [3H]-testosterone, pH 7.5, 25°, 180 min, compared to control reaction mixtures, read-out: percent inhibition of Type I AR.
The mark [5] stands for this setting: pH 5.5, read-out: percent inhibition of Type II AR.
[6] abbreviates: pH 7.5, read-out: percent inhibition of Type I AR.

Regarding `CN1C(=O)CC[C@]2(C)c3ccc(-c4cncc5ccccc45)cc3CC[C@@H]12` [Example 200, (+)-(4aR)-(10bR)-4-methyl-8-(4-isoquinolinyl)-10b-methyl-1,2,3,4,4a,5,6,10b-octahydrobenzo [f]quinolin-3-one], in assay [1] (0.3 μM, sodium acetate pH 5.5, 25°, 30 min, compared to control reaction mixtures), the “percent inhibition of Type II AR” value is on record as 64%. The inhibition at 0.3 µM in assay [1] (setting [3]) was 72%; in assay [2] (setting [4]), 59%.
As for `Cc1ccc(S(=O)(=O)n2ccc3cc(-c4ccc5c(c4)CC[C@H]4N(C)C(=O)CC[C@]54C)ccc32)cc1` [Example 236, (+)-(4aR)-(10bR)-4-methyl-8-(1-p-toluenesulfonylindol-5-yl)-10b-methyl-1,2,3,4,4a,5,6,10b-octahydrobenzo[f]quinolin-3-one], the inhibition at 0.3 µM came out at 67% in assay [1] (setting [3]) and 84% in assay [2] (setting [4]).
As for `COc1ccc(Sc2ccc3c(c2)CC[C@H]2N(C)C(=O)CC[C@]32C)cc1` [Example 105, (+)-(4aR)-(10bR)-4,10b-dimethyl-8-(4-methoxyphenylthio)-1,2,3,4,-4a,5,6,10b-octahydrobenzo[f]quinolin-3-one], the inhibition at 0.3 µM in assay [1] (setting [3]) was 33%; in assay [2] (setting [4]), 92%.
For `CN1C(=O)CC[C@]2(C)c3ccc(Sc4ccc5cccc(F)c5n4)cc3CC[C@@H]12` [Example 174, (+)-(4aR)-(10bR)-4-methyl-8-(8-fluoro-2-quinolinylthio)-10b-methyl-1,2,3,4,4a,5,6,10b-octahydrobenzo[f]quinolin-3-one] the same measures were 80% and 82%.
As to `CN1C(=O)CC[C@]2(C)c3ccc(-c4ccc([N+](=O)[O-])cc4C(F)(F)F)cc3CC[C@@H]12` [Example 133, (+)-(4aR)-(10bR)-4-methyl-8-(4-nitro-2-trifluoromethylphenyl)-10b-methyl-1,2,3,4,4a,5,6,10b-octahydrobenzo[f]-quinolin-3-one], the inhibition at 0.3 µM in assay [1] (setting [5]) was 34%; in assay [2] (setting [6]), 77%.
With `CN1C(=O)CC[C@]2(C)c3ccc(-c4ccc(F)cc4F)cc3CC[C@@H]12` [Example 231, (+)-(4aR)-(10bR)-4-methyl-8-(2,4-difluorophenyl)-10b-methyl-1,2,3,4,4a,5,6,10b-octahydrobenzo[f]quinolin-3-one], the inhibition at 0.3 µM in assay [1] (setting [3]) worked out at 21%; in assay [2] (setting [4]), 80%.
For `CN1C(=O)CC[C@]2(C)c3ccc(Sc4ccc([N+](=O)[O-])cn4)cc3CC[C@@H]12` [Example 166, (+)-(4aR)-(10bR)-4-methyl-8-(5-nitro-2-pyridinylthio)-10b-methyl-1,2,3,4,4a,5,6,10b-octahydrobenzo[f]quinolin-3-one], the inhibition at 0.3 µM in assay [1] (setting [3]) is 49%; in assay [2] (setting [4]), 50%.
As for `CN1C(=O)CC[C@]2(C)c3ccc(-c4cnc5ccccc5n4)cc3CC[C@@H]12` [Example 255, (+)-(4aR)-(10bR)-4-methyl-8-(2-quinoxalinyl)-10b-methyl-1,2,3,4,4a,5,6,10b-octahydrobenzo[f]quinolin-3-one], the inhibition at 0.3 µM in assay [1] (setting [3]) is 37%; in assay [2] (setting [4]), 71%.
As to `COc1ccccc1-c1ccc2c(c1)CC[C@H]1N(C)C(=O)CC[C@]21C` [Example 39, (+)-(4aR)-(10bR)-4-methyl-8-(2-methoxyphenyl)-10b-methyl-1,2,3,4,4a,5,6,10b-octahydrobenzo[f]quinolin-3-one], the inhibition at 0.3 µM in assay [1] (setting [3]) is 34%; in assay [2] (setting [4]) it was 81%.
Take `CCCN(CC1CC1)c1ccc(-c2ccc3c(c2)CC[C@H]2N(C)C(=O)CC[C@]32C)c2ccccc12` [Example 68, (+)-(4aR)-(10bR)-4-methyl-8-(4-[N-propyl,N-cyclopropylmethylamino]-1-naphthyl)-10b-methyl-1,2,3,4,4a,5,6,10b-octahydrobenzo[f]quinolin-3-one]: the results for the inhibition at 0.3 µM in assay [1] (setting [3]) and in assay [2] (setting [4]) were 37% and 31%, respectively.
Regarding `CN1C(=O)CC[C@]2(C)c3ccc(-c4ccc(COc5ccccc5)s4)cc3CC[C@@H]12` [Example 126, (+)-(4aR)-(10bR)-4-methyl-8-(2-[5-(phenoxymethyl)thienyl])-10b-methyl-1,2,3,4,4a,5,6,10b-octahydrobenzo[f]quinolin-3-one], the inhibition at 0.3 µM in assay [1] (setting [3]) was 43%; in assay [2] (setting [4]), 85%.
For `CN1C(=O)CC[C@]2(C)c3ccc(/C=C/c4ccccc4)cc3CC[C@@H]12` [Example 279, (4aR)-(10bR)-4,10b-dimethyl-8-(2-phenylethenyl)-1,2,3,4,4a,5,6,10b-octahydrobenzo[f]quinolin-3-one], the values for the inhibition at 0.3 µM in assay [1] (setting [5]) and in assay [2] (setting [6]) were 60% and 85%, respectively.
On to `CN1C(=O)CC[C@]2(C)c3ccc(-c4cccc(C(F)(F)F)c4F)cc3CC[C@@H]12` [Example 208, (+)-(4aR)-(10bR)-4-methyl-8-(2-fluoro-3-trifluoromethyl-phenyl)-10b-methyl-1,2,3,4,4a,5,6,10b-octahydrobenzo[f]-quinolin-3-one], for which the inhibition at 0.3 µM amounted to 10% in assay [1] (setting [3]) and 77% in assay [2] (setting [4]).
Take `CN1C(=O)CC[C@]2(C)c3ccc(-c4ncccn4)cc3CC[C@@H]12` [Example 254, (+)-(4aR)-(10bR)-4-methyl-8-(2-pyrimidinyl)-10b-methyl-1,2,3,4,4a,5,6,10b-octahydrobenzo[f]quinolin-3-one]: the values for the inhibition at 0.3 µM in assay [1] (setting [3]) and in assay [2] (setting [4]) were 28% and 37%, respectively.
For `CN1C(=O)CC[C@]2(C)c3ccc(-c4cccc(NC(c5ccccc5)c5ccccc5)c4)cc3CC[C@@H]12` [Example 272, (+)-(4aR)-(10bR)-4-methyl-8-(3-diphenylmethylaminophenyl)-10b-methyl-1,2,3,4,4a,5,6,10b-octahydrobenzo[f]quinolin-3-one], the inhibition at 0.3 µM in assay [1] (setting [3]) came to 11%; in assay [2] (setting [4]) it was 86%.
For `COc1ccc2cc(-c3ccc4c(c3)CC[C@H]3N(C)C(=O)CC[C@]43C)ccc2c1` [Example 81, (+)-(4aR)-(10bR)-4-methyl-8-(2-[6-methoxy]naphthyl)-10b-methyl-1,2,3,4,4a,5,6,10b-octahydrobenzo[f]quinolin-3-one], the inhibition at 0.3 µM in assay [1] (setting [3]) came out at 25%; in assay [2] (setting [4]), 92%.
Take `C[C@]12CCC(=O)N[C@@H]1CCc1cc(CSc3nc4ccccc4s3)ccc12` [Example 290, (4aR)-(10bR)-8-(2-benzothiazolyl)thiomethyl-10b-methyl-1,2,3,4,4a,5,6,10b-octahydrobenzo[f]quinolin-3-one]: the inhibition at 0.3 µM in assay [1] (setting [3]) was determined as 8%; in assay [2] (setting [4]), 25%.
In the case of `CN1C(=O)CC[C@]2(C)c3ccc(-c4cccc([N+](=O)[O-])c4)cc3CC[C@@H]12` [Example 86, (+)-(4aR)-(10bR)-4-methyl-8-(3-nitrophenyl)-10b-methyl-1,2,3,4,4a,5,6,10b-octahydrobenzo[f]quinolin-3-one], the inhibition at 0.3 µM in assay [1] (setting [3]) amounted to 51%; in assay [2] (setting [4]) it was 66%.
With `C[C@]12CCC(=O)N[C@@H]1CCc1cc(CSc3ccccc3)ccc12` [Example 289, (4aR)-(10bR)-8-phenylthiomethyl-10b-methyl-1,2,3,4,4a,5,6,10b-octahydrobenzo[f]quinolin-3-one], the inhibition at 0.3 µM in assay [1] (setting [3]) turned out to be 24%; in assay [2] (setting [4]), 23%.
For the compound `CN1C(=O)CC[C@]2(C)c3ccc(Sc4nc5cc([N+](=O)[O-])ccc5s4)cc3CC[C@@H]12` [Example 160, (+)-(4aR)-(10bR)-4-methyl-8-(5-nitro-2-benzothiazolylthio)-10b-methyl-1,2,3,4,4a,5,6,10b-octahydrobenzo[f]quinolin-3-one], the results for the inhibition at 0.3 µM in assay [1] (setting [3]) and in assay [2] (setting [4]) were 38% and 61%, respectively.
Take `C[C@]12CCC(=O)N[C@@H]1CCc1cc(Sc3ccc(Cl)cc3)ccc12` [Example 5, (+)-(4aR)-(10bR)-8-(4-chlorophenylthio)-10b-methyl-1,2,3,4,4a,5,6,10b-octahydrobenzo [f]quinolin-3-one]: the values for the inhibition at 0.3 µM in assay [1] (setting [3]) and in assay [2] (setting [4]) were 0% and 44%, respectively.
For `CN1C(=O)CC[C@]2(C)c3ccc(SC(c4ccccc4)c4ccccc4)cc3CC[C@@H]12` [Example 195, (4aR)-(10bR)-8-diphenylmethylthio-4,10b-dimethyl-1,2,3,4,4a,5,6,10b-octahydrobenzo[f]-quinoline-3-one] the same measures were 71% and 90%.
As for `CN1C(=O)CC[C@]2(C)c3ccc(-c4nnnn4-c4ccccc4)cc3CC[C@@H]12` [Example 258, (+)-(4aR)-(10bR)-4-methyl-8-(2-[3-phenyl]tetrazolyl)-10b-methyl-1,2,3,4,4a,5,6,10b-octahydrobenzo[f]quinolin-3-one], the inhibition at 0.3 µM in assay [1] (setting [3]) was 16%; in assay [2] (setting [4]) it was 27%.
For `CN1C(=O)CC[C@]2(C)c3ccc(-c4ccc(F)c(F)c4F)cc3CC[C@@H]12` [Example 232, (+)-(4aR)-(10bR)-4-methyl-8-(2,3,4-trifluorophenyl)-10b-methyl-1,2,3,4,4a,5,6,10b-octahydrobenzo[f]quinolin-3-one] the same measures were 27% and 94%.
